In the NIST ThermoML archive (doi:10.1016/j.fluid.2007.10.013):

Assay: xn = mol fraction of the nth substance listed
Conditions: 101 kPa, Liquid, Taylor dispersion method, x1 = 0

binary diffusion coefficient (293.2 K) [m2/s] | binary diffusion coefficient (298.2 K) [m2/s] | binary diffusion coefficient (303.2 K) [m2/s] | binary diffusion coefficient (313.2 K) [m2/s] | binary diffusion coefficient (323.2 K) [m2/s] | binary diffusion coefficient (333.2 K) [m2/s] | SMILES
7.72e-10 | 8.8e-10 | 9.91e-10 | 1.26e-09 | 1.55e-09 | 1.88e-09 | NC(CO)C(=O)O (centres undefined) [(.+-.)-serine] + O
7.26e-10 | 8.39e-10 | 9.39e-10 | 1.19e-09 | 1.47e-09 | 1.78e-09 | NC(CCO)C(=O)O (stereo not drawn) [DL-2-amino-4-hydroxybutanoic acid] + O
6.97e-10 | 7.96e-10 | 9.06e-10 | 1.14e-09 | 1.42e-09 | 1.72e-09 | C[C@H](O)[C@H](N)C(=O)O [DL-allothreonine] + O
6.91e-09 | 7.99e-09 | 9.04e-09 | 1.14e-08 | 1.43e-08 | 1.72e-08 | C[C@@H](O)[C@H](N)C(=O)O [DL-threonine] + O
